Values of other authors, collected in publication PMC6525002 (Cancer Management and Research, 2019).

Legend:
[1] = system: patients with NSCLC; conditions: clinical trials; cited from earlier work
[2] = system: NSCLC patients with EGFR mutations; conditions: cited from earlier work
[3] = cited from earlier work

SMILES | frequency of diarrhea [1] | response rates on brain metastases [2] | time to Cmax ([3]; cancer patients, post-dose) [h] | inter-patient variability of exposure ([3]; post single-dose exposure) [fold]
CN(C)C/C=C/C(=O)Nc1cc2c(Nc3ccc(F)c(Cl)c3)ncnc2cc1O[C@H]1CCOC1 [afitinib] | 87.0% | – | – | –
C#Cc1cccc(Nc2ncnc3cc(OCCOC)c(OCCOC)cc23)c1 [erlotinib] | 40.0–67.9% | 60–80% | – | –
COc1cc2ncnc(Nc3ccc(F)c(Cl)c3)c2cc1OCCCN1CCOCC1 [gefitinib] | – | – | 3 | 1.5
